Source: EP2181998B1, “New benzothiazinone derivative and its use as antibacterial agent” (priority 2006, dated 2007)
Values after ≈ are worked out from the molar mass of the structure shown. Read-outs that look alike come from different tables or passages of the source.

Key:
M. fortuitum B = conditions: Mycolicibacterium fortuitum, read-out: MIC M.fortuitum
[1] = tested on: Mycobacterium smegmatis SG 987; format: cell-based
[2] = tested on: Mycobacterium tuberculosis clinical isolate 6341; format: cell-based
[3] = tested on: Mycobacterium tuberculosis H37Rv and clinical isolates 6341 and 6374; test: MIC and MBC, classical method, over several strains; format: cell-based; conditions: for MBC: read-out: MBC (µg/mL) mean; for MIC: read-out: MIC (µg/mL) mean
[4] = tested on: Mycobacterium tuberculosis clinical isolate 6374; format: cell-based
M. vaccae IMET 10 10670 = format: cell-based
[5] = tested on: Mycobacterium tuberculosis H37Rv; test: Murine TB model (experimental hematogenously disseminated tuberculosis); format: in vivo, BALB/c line mice; conditions: for Survival of animals: Groups 4/5, 25 mg/kg oral
[6] = Mycolicibacterium smegmatis, SG987; read-out: MIC M. smegmatis
[7] = Mycolicibacterium vaccae, IMET1010670; read-out: MIC M.vaccae
[8] = Mycolicibacterium smegmatis, SG987, read-out: MIC M. smegmatis
[9] = Mycolicibacterium vaccae, IMET1010670, read-out: MIC M.vaccae
[10] = 25 mg/kg orally, 42 days after inoculation of the culture medium

## O=c1nc(N2CCC3(CC2)OCCO3)sc2c([N+](=O)[O-])cc(C(F)(F)F)cc12 [Compound 1, 2-(1,4-dioxa-8-azaspiro[4.5]dec-8-yl)-8-nitro-6-(trifluoromethyl)-1,3-benzothiazin-4-one]
M. fortuitum B
  MIC: 12.5 ng/mL (≈ 0.0299 µM)
[1]; [6]
  MIC: 12.5 ng/mL (≈ 0.0299 µM)
[2]
  MBC: 2.34 µg/mL (≈ 5.61 µM)
  MIC: 1.56 µg/mL (≈ 3.74 µM)
[3]
  MBC: 1.75 µg/mL (≈ 4.19 µM)
  MIC: 1.17 µg/mL (≈ 2.8 µM)
[4]
  MBC: 2.34 µg/mL (≈ 5.61 µM)
  MIC: 1.56 µg/mL (≈ 3.74 µM)
M. vaccae IMET 10 10670; [7]
  MIC: 3.12 ng/mL (≈ 0.00748 µM)

## O=c1nc(N2CCC3(CC2)OCCO3)sc2c([N+](=O)[O-])cc([N+](=O)[O-])cc12 [Compound 3, 2-(1,4-dioxa-8-azaspiro[4.5]dec-8-yl)-6,8-dinitro-1,3-benzothiazin-4-one]
M. fortuitum B
  MIC: 6 ng/mL (≈ 0.0152 µM)
[1]; [8]
  MIC: 200 ng/mL (≈ 0.507 µM)
M. vaccae IMET 10 10670; [9]
  MIC: 1.5 ng/mL (≈ 0.0038 µM)

## CC1COC2(CCN(c3nc(=O)c4cc([N+](=O)[O-])cc([N+](=O)[O-])c4s3)CC2)O1 (stereo not drawn) [Compound 4, 2-(2-methyl-1,4-dioxa-8-azaspiro[4.5]decyl)-6,8-dinitro-1,3-benzothiazin-4-one]
M. fortuitum B
  MIC: 3 ng/mL (≈ 0.00735 µM)
[1]; [8]
  MIC: 200 ng/mL (≈ 0.49 µM)
M. vaccae IMET 10 10670; [9]
  MIC: 3 ng/mL (≈ 0.00735 µM)

## CC1OC2(CCN(c3nc(=O)c4cc(C(F)(F)F)cc([N+](=O)[O-])c4s3)CC2)OC1C (stereo not drawn) [Compound 5, 2-(2,3-dimethyl-1,4-dioxa-8-azaspiro[4.5]dec-8-yl)-8-nitro-6-(trifluoromethyl)-1,3-benzothiazin-4-one]
M. fortuitum B
  MIC: 0.078 ng/mL (≈ 0.000175 µM)
[1]; [6]
  MIC: 6.25 ng/mL (≈ 0.014 µM)
[2]
  MBC: 0.39 µg/mL (≈ 0.876 µM)
  MIC: < 0.39 µg/mL
[3]
  MBC: 0.45 µg/mL (≈ 1.01 µM)
  MIC: 0.39 µg/mL (≈ 0.876 µM)
[4]
  MBC: 0.39 µg/mL (≈ 0.876 µM)
  MIC: < 0.39 µg/mL
M. vaccae IMET 10 10670; [7]
  MIC: 0.078 ng/mL (≈ 0.000175 µM)

## O=c1nc(N2CCC3(CC2)OCCCCO3)sc2c([N+](=O)[O-])cc([N+](=O)[O-])cc12 [Compound 7, 2-(7,12-dioxa-3-azaspiro[5.6]dodec-3-yl)-6,8-dinitro-1,3-benzothiazin-4-one]
M. fortuitum B
  MIC: 3 ng/mL (≈ 0.0071 µM)
[1]; [8]
  MIC: 780 ng/mL (≈ 1.85 µM)
M. vaccae IMET 10 10670; [9]
  MIC: 3 ng/mL (≈ 0.0071 µM)

## Cc1c([N+](=O)[O-])cc2c(=O)nc(N3CCC4(CC3)OCCO4)sc2c1[N+](=O)[O-] [Compound 8, 2-(1,4-dioxa-8-azaspiro[4.5]dec-8-yl)-7-methyl-6,8-dinitro-1,3-benzothiazin-4-one]
M. fortuitum B
  MIC: 25 ng/mL (≈ 0.0612 µM)
[1]; [8]
  MIC: 400 ng/mL (≈ 0.979 µM)
M. vaccae IMET 10 10670; [9]
  MIC: 25 ng/mL (≈ 0.0612 µM)

## N#Cc1cc([N+](=O)[O-])c2sc(N3CCC4(CC3)OCCO4)nc(=O)c2c1 [Compound 9, 2-(1,4-dioxa-8-azaspiro[4.5]dec-8-yl)-8-nitro-4-oxo-1,3-benzothiazine-6-carbonitrile]
M. fortuitum B
  MIC: 25 ng/mL (≈ 0.0668 µM)
[1]; [6]
  MIC: 50 ng/mL (≈ 0.134 µM)
[2]
  MBC: 1.17 µg/mL (≈ 3.13 µM)
  MIC: 0.78 µg/mL (≈ 2.08 µM)
[3]
  MBC: 0.75 µg/mL (≈ 2 µM)
  MIC: 0.52 µg/mL (≈ 1.39 µM)
[4]
  MBC: 0.78 µg/mL (≈ 2.08 µM)
  MIC: 0.58 µg/mL (≈ 1.55 µM)
M. vaccae IMET 10 10670; [7]
  MIC: 3.12 ng/mL (≈ 0.00833 µM)

## CC1COC2(CCN(c3nc(=O)c4cc(C#N)cc([N+](=O)[O-])c4s3)CC2)O1 (stereo not drawn) [Compound 10, 2-(2-methyl-1,4-dioxa-8-azaspiro[4.5]dec-8-yl)-8-nitro-4-oxo-1,3-benzothiazine-6-carbonitrile]
M. fortuitum B
  MIC: 12.5 ng/mL (≈ 0.0322 µM)
[1]; [6]
  MIC: 25 ng/mL (≈ 0.0644 µM)
[2]
  MBC: 0.78 µg/mL (≈ 2.01 µM)
  MIC: 0.58 µg/mL (≈ 1.49 µM)
[3]
  MBC: 0.71 µg/mL (≈ 1.83 µM)
  MIC: 0.45 µg/mL (≈ 1.16 µM)
[4]
  MBC: 0.78 µg/mL (≈ 2.01 µM)
  MIC: 0.39 µg/mL (≈ 1 µM)
M. vaccae IMET 10 10670; [7]
  MIC: 3.12 ng/mL (≈ 0.00803 µM)

## NNC(=O)c1ccncc1 [Isoniazid (INH), Isoniazid, reference compound]
[5]; 25 mg/kg orally, daily 6 times per week, four-score scale, liver, spleen and lungs
  Injury index: 1,2
[5]; 25 mg/kg orally, 100% - injury index of group / injury index of control x 100
  Efficacy index (%): 70,5%
[5]; [10]
  right lung Culture, without dilution CFU: ∼ 40 CFU
  spleen Culture, without dilution CFU: ∼ 40 CFU
[5]; day of treatment 1, of 10 animals
  Survival of animals: 10
[5]; day of treatment 2, of 10 animals
  Survival of animals: 10
[5]; day of treatment 3, of 10 animals
  Survival of animals: 10
[5]; day of treatment 4, of 10 animals
  Survival of animals: 10
[5]; day of treatment 5, of 10 animals
  Survival of animals: 10
[5]; day of treatment 6, of 10 animals
  Survival of animals: 10
[5]; day of treatment 7, of 10 animals
  Survival of animals: 10
[5]; day of treatment 8, of 10 animals
  Survival of animals: 10
[5]; day of treatment 9, of 10 animals
  Survival of animals: 10
[5]; day of treatment 10, of 10 animals
  Survival of animals: 10
[5]; day of treatment 11, of 10 animals
  Survival of animals: 10
[5]; day of treatment 12, of 10 animals
  Survival of animals: 10
[5]; day of treatment 13, of 10 animals
  Survival of animals: 10
[5]; day of treatment 14, of 10 animals
  Survival of animals: 10
[5]; day of treatment 15, of 10 animals
  Survival of animals: 10
[5]; day of treatment 16, of 10 animals
  Survival of animals: 10
[5]; day of treatment 17, of 10 animals
  Survival of animals: 10
[5]; day of treatment 18, of 10 animals
  Survival of animals: 10
[5]; day of treatment 19, of 10 animals
  Survival of animals: 10
[5]; day of treatment 20, of 10 animals
  Survival of animals: 10
[5]; day of treatment 21, of 10 animals
  Survival of animals: 10
[5]; day of treatment 22, of 10 animals
  Survival of animals: 10
[5]; day of treatment 23, of 10 animals
  Survival of animals: 10
[5]; day of treatment 24, of 10 animals
  Survival of animals: 10
[5]; day of treatment 25, of 10 animals
  Survival of animals: 10
[5]; day of treatment 26, of 10 animals
  Survival of animals: 10
[5]; day of treatment 27
  Survival of animals: 100%
[2]
  MBC: > 100 µg/mL
  MIC: > 100 µg/mL
[2]; read-out: MBC (µg/mL) mean
  MBC: > 100 µg/mL
[2]; read-out: MIC (µg/mL) mean
  MIC: > 100 µg/mL
[4]
  MBC: > 100 µg/mL
  MIC: > 100 µg/mL
[4]; read-out: MBC (µg/mL) mean
  MBC: > 100 µg/mL
[4]; read-out: MIC (µg/mL) mean
  MIC: > 100 µg/mL
